Laboratory results: ChEMBL document CHEMBL5465560, “Selectivity Literature for EUbOPEN Chemogenomic Library” (2024)
pIC50: −log10 of the molar value.

Tests used:
[1] = tested on: Epidermal growth factor receptor (Homo sapiens), P00533 [UNDEFINED MUTATION]; assay: Selectivity interaction (KinomeScan (DiscoverX)) EUB0000229b EGFR; details: at 1 µM
[2] = target: T1, Myosin light chain kinase family member 4 (Homo sapiens) (UniProt Q86YV6); assay: Selectivity interaction (KinomeScan (DiscoverX)) EUB0000092b MYLK4; details: at 10 µM
T1 sequence (whole entry): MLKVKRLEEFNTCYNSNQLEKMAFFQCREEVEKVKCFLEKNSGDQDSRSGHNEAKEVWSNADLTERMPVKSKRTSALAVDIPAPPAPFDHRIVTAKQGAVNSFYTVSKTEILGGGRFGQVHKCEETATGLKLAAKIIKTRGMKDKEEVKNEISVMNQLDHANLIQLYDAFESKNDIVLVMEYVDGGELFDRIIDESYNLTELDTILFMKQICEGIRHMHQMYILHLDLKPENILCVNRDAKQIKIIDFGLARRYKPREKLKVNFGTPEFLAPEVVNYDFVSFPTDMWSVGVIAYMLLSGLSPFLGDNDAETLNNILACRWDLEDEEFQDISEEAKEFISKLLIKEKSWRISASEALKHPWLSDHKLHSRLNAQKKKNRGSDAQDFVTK

[3] = target: Serine/threonine-protein kinase MRCK beta (Homo sapiens) (UniProt Q9Y5S2); assay: Selectivity interaction (KinomeScan (DiscoverX)) EUB0000655a CDC42BPB; details: at 10 µM
[4] = target: Rho-associated protein kinase 2 (Homo sapiens, UniProt O75116); assay: Selectivity interaction (KinomeScan (DiscoverX)) EUB0000655a ROCK2; details: at 10 µM
Sequence of Rho-associated protein kinase 2 (O75116 whole entry, looked up): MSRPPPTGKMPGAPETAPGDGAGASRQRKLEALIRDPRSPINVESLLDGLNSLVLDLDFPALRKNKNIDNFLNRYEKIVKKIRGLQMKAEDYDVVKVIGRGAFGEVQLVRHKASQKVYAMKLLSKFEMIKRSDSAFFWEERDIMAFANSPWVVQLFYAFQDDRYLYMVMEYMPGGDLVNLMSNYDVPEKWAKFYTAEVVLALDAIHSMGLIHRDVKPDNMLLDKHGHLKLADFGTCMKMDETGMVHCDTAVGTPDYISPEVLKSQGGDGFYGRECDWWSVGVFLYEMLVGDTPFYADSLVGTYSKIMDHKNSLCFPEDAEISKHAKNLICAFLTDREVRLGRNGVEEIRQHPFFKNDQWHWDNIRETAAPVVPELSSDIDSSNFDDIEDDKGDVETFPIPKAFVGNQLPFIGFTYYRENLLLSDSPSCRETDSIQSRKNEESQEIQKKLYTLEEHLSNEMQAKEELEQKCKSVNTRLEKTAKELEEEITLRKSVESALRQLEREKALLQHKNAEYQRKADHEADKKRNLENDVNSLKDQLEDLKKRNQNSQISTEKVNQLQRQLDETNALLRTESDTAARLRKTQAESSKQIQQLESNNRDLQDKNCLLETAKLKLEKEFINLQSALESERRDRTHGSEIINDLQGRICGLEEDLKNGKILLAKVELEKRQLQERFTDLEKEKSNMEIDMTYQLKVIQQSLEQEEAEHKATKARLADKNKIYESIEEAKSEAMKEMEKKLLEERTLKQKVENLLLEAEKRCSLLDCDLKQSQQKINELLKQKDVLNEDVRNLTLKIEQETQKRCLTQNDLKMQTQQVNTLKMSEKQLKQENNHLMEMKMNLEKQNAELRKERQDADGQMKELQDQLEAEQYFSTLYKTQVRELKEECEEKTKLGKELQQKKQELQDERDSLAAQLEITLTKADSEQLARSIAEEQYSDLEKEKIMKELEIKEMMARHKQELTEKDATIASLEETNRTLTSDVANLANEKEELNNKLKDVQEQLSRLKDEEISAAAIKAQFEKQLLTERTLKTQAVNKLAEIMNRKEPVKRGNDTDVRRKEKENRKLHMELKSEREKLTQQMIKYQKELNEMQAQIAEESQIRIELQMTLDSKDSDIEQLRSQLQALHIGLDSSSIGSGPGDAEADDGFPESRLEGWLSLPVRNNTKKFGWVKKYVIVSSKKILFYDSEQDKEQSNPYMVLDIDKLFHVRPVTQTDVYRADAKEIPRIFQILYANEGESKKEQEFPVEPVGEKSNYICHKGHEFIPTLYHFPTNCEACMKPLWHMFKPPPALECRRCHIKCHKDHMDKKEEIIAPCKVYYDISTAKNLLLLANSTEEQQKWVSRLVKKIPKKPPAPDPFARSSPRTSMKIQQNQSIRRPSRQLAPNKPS

[5] = target: T2, Serine/threonine-protein kinase Sgk2 (Homo sapiens) (UniProt Q9HBY8); assay: Selectivity interaction (KinomeScan (DiscoverX)) EUB0001079a SGK2; details: at 1 µM
T2 sequence (whole entry): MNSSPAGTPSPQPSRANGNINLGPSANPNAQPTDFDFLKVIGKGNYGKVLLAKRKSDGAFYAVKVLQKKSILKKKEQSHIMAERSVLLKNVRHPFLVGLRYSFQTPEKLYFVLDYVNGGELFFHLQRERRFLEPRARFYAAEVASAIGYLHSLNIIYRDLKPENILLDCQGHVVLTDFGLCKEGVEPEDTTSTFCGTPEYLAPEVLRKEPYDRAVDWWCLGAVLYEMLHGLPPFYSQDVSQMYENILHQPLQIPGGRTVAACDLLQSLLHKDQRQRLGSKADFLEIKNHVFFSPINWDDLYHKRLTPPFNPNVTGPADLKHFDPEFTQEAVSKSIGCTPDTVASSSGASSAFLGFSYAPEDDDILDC

Histamine H3 receptor = Histamine H3 receptor (Homo sapiens, UniProt Q9Y5N1); assay: Selectivity interaction (Human histamine H3 receptor binding assay ) EUB0000877a HRH3
[6] = target: Epidermal growth factor receptor (Homo sapiens, UniProt P00533); assay: Selectivity interaction (Millipore kinase profiler) EUB0000124b EGFR; details: at 10 µM
Sequence of Epidermal growth factor receptor (P00533 whole entry): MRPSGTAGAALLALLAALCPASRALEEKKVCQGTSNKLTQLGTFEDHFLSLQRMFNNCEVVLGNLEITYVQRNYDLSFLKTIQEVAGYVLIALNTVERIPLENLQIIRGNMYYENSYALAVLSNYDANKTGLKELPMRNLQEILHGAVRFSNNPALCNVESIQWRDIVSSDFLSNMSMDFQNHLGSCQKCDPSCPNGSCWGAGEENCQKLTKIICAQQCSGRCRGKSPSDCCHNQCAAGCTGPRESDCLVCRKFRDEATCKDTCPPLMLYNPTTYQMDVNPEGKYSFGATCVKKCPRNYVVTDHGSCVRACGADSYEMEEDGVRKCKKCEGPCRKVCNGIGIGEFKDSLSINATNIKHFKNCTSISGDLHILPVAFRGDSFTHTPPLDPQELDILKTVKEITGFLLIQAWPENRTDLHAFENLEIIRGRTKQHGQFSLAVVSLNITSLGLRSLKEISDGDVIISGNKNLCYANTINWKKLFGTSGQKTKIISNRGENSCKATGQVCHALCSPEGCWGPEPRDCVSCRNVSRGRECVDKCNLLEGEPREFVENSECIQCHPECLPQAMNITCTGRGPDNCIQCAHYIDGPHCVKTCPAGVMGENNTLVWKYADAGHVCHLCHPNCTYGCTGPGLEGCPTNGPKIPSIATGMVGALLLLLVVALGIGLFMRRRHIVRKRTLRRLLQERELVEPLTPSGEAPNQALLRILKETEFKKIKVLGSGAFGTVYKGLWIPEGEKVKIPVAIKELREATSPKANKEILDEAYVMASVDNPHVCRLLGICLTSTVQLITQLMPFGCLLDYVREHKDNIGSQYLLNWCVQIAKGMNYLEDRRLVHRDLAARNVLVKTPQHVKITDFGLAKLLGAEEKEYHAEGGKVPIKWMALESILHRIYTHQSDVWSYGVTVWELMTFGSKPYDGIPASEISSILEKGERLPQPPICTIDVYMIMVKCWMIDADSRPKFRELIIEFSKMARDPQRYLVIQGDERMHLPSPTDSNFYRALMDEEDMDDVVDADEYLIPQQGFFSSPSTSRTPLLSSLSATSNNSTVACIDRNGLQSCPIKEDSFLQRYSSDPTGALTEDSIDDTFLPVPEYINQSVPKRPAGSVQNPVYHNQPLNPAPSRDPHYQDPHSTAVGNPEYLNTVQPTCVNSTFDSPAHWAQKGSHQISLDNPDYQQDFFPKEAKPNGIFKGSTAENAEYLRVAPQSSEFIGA

[7] = target: Protein kinase C beta type (Homo sapiens, UniProt P05771); assay: Selectivity interaction (Millipore kinase profiler) EUB0000124b PRKCB; details: at 10 µM
[8] = target: Calcium/calmodulin-dependent protein kinase type 1G (Homo sapiens) (UniProt Q96NX5); details: at 10 µM
[9] = target: 5'-AMP-activated protein kinase catalytic subunit alpha-1 (Homo sapiens, UniProt Q13131); assay: Selectivity interaction (ActivX KiNativ screen (kinase selectivity in THP-1 cell lysates)) EUB0000639a PRKAA1; assay type: subcellular; details: lysate, at 0.01 µM
[10] = target: Homeodomain-interacting protein kinase 3 (Homo sapiens, UniProt Q9H422); assay: Selectivity interaction (Kinase panel (Invitrogen)) EUB0000639a HIPK3; details: at 200 nM
[11] = target: T3, 3-phosphoinositide-dependent protein kinase 1 (Homo sapiens) (UniProt O15530); assay: Selectivity interaction (KinomeScan (DiscoverX)) EUB0001049a PDPK1; details: at 1 µM
T3 sequence (whole entry): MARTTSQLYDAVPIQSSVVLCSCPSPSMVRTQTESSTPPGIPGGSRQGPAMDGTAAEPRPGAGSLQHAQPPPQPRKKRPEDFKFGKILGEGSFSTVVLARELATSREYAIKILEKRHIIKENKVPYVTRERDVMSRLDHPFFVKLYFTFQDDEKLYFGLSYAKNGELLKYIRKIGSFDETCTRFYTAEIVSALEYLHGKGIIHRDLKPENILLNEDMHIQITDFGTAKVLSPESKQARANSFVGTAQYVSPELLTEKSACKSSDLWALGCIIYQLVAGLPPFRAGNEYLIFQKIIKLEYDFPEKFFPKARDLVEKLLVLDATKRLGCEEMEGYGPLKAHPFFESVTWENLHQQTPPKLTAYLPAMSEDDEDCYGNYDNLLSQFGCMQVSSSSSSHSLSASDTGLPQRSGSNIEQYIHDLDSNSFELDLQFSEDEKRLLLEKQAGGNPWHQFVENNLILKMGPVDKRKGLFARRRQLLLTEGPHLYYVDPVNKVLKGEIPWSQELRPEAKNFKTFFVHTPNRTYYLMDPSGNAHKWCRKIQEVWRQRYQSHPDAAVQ

[12] = target: Leukocyte tyrosine kinase receptor (Homo sapiens, UniProt P29376); assay: Selectivity interaction (KinomeScan (DiscoverX)) EUB0000045b LTK
Sequence of Leukocyte tyrosine kinase receptor (P29376 whole entry): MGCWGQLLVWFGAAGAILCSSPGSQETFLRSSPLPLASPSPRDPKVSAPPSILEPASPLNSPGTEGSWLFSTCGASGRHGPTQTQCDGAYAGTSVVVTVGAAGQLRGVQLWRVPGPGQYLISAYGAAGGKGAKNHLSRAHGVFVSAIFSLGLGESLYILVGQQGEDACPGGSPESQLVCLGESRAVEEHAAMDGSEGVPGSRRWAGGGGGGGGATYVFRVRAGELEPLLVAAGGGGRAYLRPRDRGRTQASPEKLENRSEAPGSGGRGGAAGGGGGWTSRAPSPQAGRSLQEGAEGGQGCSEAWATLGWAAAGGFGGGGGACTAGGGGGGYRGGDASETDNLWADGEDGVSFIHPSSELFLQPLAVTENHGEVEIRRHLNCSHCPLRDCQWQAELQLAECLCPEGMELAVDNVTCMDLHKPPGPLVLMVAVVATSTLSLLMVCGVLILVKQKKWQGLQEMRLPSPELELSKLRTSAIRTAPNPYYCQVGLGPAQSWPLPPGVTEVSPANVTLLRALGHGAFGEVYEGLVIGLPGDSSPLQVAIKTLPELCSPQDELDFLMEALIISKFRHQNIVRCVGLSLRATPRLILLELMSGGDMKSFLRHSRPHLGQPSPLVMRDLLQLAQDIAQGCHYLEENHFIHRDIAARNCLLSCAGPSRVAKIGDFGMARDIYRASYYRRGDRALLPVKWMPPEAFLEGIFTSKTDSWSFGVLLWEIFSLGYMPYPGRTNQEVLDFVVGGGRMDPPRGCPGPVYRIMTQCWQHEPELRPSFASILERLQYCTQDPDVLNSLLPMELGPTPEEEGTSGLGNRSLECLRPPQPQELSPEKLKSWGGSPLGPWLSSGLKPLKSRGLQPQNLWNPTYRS

[13] = target: T4, Phosphatidylinositol 5-phosphate 4-kinase type-2 gamma (Homo sapiens) (UniProt Q8TBX8); assay: Selectivity interaction (KinomeScan (DiscoverX)) EUB0000618a PIP4K2C; details: at 10 µM
T4 sequence (whole entry): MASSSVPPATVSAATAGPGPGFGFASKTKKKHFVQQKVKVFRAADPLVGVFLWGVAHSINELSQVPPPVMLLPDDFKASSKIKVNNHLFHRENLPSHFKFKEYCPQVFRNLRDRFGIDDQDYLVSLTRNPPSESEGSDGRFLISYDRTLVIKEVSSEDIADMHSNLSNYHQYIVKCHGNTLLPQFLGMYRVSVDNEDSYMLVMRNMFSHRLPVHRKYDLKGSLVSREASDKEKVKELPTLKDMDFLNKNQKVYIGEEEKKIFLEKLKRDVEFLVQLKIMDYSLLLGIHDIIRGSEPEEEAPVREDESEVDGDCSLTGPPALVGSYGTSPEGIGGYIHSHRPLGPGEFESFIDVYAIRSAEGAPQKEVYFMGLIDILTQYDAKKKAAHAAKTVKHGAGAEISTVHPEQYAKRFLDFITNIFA

[14] = target: Serine/threonine-protein kinase Nek6 (Homo sapiens) (UniProt Q9HC98); assay: Selectivity interaction (Ambit KINOMEscan and KiNATiv profiling in Jurkat cells) EUB0000090b NEK6; assay type: cell-based; details: at 1 µM
[15] = target: Mitogen-activated protein kinase 1 (Homo sapiens, UniProt P28482); assay: Selectivity interaction (Ambit KINOMEscan and KiNATiv profiling in Jurkat cells) EUB0000090b MAPK1; assay type: cell-based; details: at 1 µM
Sequence of Mitogen-activated protein kinase 1 (P28482 whole entry): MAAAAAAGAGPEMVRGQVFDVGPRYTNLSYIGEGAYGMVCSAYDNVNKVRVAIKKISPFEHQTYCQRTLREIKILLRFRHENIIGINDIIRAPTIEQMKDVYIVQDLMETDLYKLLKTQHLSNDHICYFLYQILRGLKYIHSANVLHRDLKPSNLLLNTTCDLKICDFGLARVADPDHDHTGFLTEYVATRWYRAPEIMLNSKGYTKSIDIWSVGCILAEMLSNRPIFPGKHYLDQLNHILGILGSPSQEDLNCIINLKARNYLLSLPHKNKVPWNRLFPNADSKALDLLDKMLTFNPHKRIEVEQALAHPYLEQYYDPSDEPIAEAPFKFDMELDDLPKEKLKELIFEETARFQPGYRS

[16] = target: Tyrosine-protein kinase JAK1 (Homo sapiens, UniProt P23458); assay: Selectivity interaction (KinomeScan (DiscoverX)) EUB0001619a JAK1; details: at 1 µM

Sequence of Epidermal growth factor receptor (Homo sapiens), P00533 [UNDEFINED MUTATION] (P00533 whole entry, looked up, change not shown): as the sequence (P00533 whole entry) above

COc1cc(N(C)c2ccnc3ccc(C(F)(F)F)cc23)cc(OC)c1OC
% binding [1]: 95%

CCC(=O)N1CCN(c2ccc(-n3c(=O)ccc4cnc5ccc(-c6cnc7ccccc7c6)cc5c43)cc2C(F)(F)F)CC1
% of control [2]: 83%

CN(C)CCOc1ccc(-c2nc(-c3ccncc3)c(-c3ccc4c(c3)CC/C4=N\O)[nH]2)cc1
% of control [3]: 89% | % of control [4]: 47%

Nc1cnc(N2CCc3cc(S(=O)(=O)Nc4c(F)cc(Cl)cc4F)cc(N4CCCC4=O)c32)nc1 [TP-020n]
% of control [5]: 76%

CCC(=O)N1CC[C@H](Nc2ncnc3c2CN(c2cnc(OC)c(C(F)(F)F)c2)CC3)C1 [LENIOLISIB]
pIC50 (Histamine H3 receptor): < 4.52

CC(=O)Nc1cccc(-n2c(=O)n(C3CC3)c(=O)c3c(Nc4ccc(I)cc4F)n(C)c(=O)c(C)c32)c1
% of control [6]: 104% | % of control [7]: 108%

Cc1cc([C@@H](C)Nc2ccccc2C(=O)O)c2nc(N3CCOCC3)cc(=O)n2c1 [AZD-6482]
% of control [8]: 91%

CC[C@@H]1[C@H](F)C(=O)N[C@@H]1COc1nccc2cc(C(N)=O)c(OC)cc12 [ZIMLOVISERTIB]
% of inhibition [9]: 7.8% | % of inhibition [10]: 5.1%

COc1cc(Nc2nc(C)cc(-c3cnn4nc(OC)ccc34)n2)cc(C(F)(F)F)c1
% of control [11]: 100%

C=CC(=O)Nc1cc(-n2c(=O)ccc3cnc4ccc(-c5ccc(NS(C)(=O)=O)cc5)cc4c32)ccc1C
% of control ([12]; at 1 µM): 100% | % of control ([12]; at 10 µM): 100%

O[C@H]1CC[C@H](Nc2ncc3nc(Nc4c(F)cc(F)cc4F)n([C@H]4CCOC4)c3n2)CC1
% of control [13]: 32%

CN(C)C/C=C/C(=O)Nc1ccc(C(=O)N2CCCC(Nc3ncc(Cl)c(-c4c[nH]c5ccccc45)n3)C2)cc1 (stereo not drawn)
% of control [14]: 95% | % of control [15]: 85%

N#Cc1cccc(-c2c[nH]c3ncnc(N4CCOCC4)c23)c1
% of control [16]: 94%
